Assay [1] concerns the target T1, GnRH receptor (Homo sapiens, UniProt P30968).
T1 sequence (P30968 1-328): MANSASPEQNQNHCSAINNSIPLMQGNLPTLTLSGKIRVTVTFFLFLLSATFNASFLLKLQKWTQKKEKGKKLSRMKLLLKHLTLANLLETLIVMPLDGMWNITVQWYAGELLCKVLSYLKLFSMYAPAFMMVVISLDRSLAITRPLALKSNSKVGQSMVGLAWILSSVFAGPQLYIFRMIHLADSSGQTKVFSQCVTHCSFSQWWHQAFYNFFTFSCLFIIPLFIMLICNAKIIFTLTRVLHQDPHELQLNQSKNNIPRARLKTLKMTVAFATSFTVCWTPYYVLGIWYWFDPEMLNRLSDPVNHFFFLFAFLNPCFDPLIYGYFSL
Briefly: Functional reporter gene assay (luciferase) in LTK cells carrying GnRH receptors, triptorelin stimulation. The class given is cell-based. Also on record: expressed in transfected cells; host or cells: LTK cells (ATCC No. CCL-1.3), stably transfected, with CRE / CMV minimal promoter luciferase reporter. Particulars: inhibition of triptorelin/Rolipram-stimulated luciferase reporter. As to the method: Functional Reporter Gene Assay
For performing functional tests, stable, transfixed LTK cells carrying GnRH receptors (ATCC No. CCL-1.3) with a heterologous expression of cAMP responsible elements as well as a CMV minimal promoter-driven luciferase reporter gene are used.
The cells are cultivated in DMEM medium (Invitrogen Life Technologies, Germany) with penicillin (100 I.U./ml), streptomycin (0.1 mg/ml) and glutamine (0.01 mol/l) and 10% fetal calf serum (FCS; Invitrogen Life Technologies, Germany) on plastic tissue culture plates (Nunc, Germany, 245×245×20 mm).
80% confluent cell culture plates are washed twice with 50 ml of phosphate-buffered salt solution (PBS) and subsequently dissolved with trypsin EDTA solution (Invitrogen Life Technologies, Germany). The cells are pelletized by centrifuging at 200×g for 5 minutes in a laboratory centrifuge (Kendro, Germany). The cell pellet is resuspended in 3 ml of assay medium (Invitrogen Life Technologies, Germany) with penicillin (100 I.U./ml), streptomycin (0.1 mg/ml) and glutamine (0.01 mol/l) and 10% fetal calf serum (FCS; Invitrogen Life Technologies, Germany), and the cell count is determined by means of trypan blue staining in a Neubauer counting chamber. The cell suspension is set with assay medium to a concentration of 1×10^4 Z/100 μl. The cells are suspended on white 96-well microtiter plates (Costar, Germany) and incubated for 18 hours in an incubator.
To perform tests, test substances are diluted as 10 mmol DMSO solutions in assay medium to 6× the final concentration used. 25 μl of the test substance is added to 100 μl cells and incubated for 60 minutes at 37° C., 5% CO2. Then, the addition of triptorelin (D-Trp6-GnRH)/Rolipram solution (6 mmol/6 mmol) and a renewed incubation are carried out for 6 hours at 37° C., 5% CO2.
After incubation, the addition of 50 μl of lysis/detection buffer (LucLite, PE Life Science) and the measurement in a Lumistar luminometer (BMG Labtechnologies GmBH, Germany) are carried out.
The evaluation of the samples is carried out after calculating the inhibition in comparison to untreated stimulated cells, after removal of non-stimulated controls, by means of GraphPad Prism (GraphPad Software, Inc., USA) or alternately by means of OMMM (Accelrys, Germany) Software.

In assay [2] the target is T1, GnRH receptor. Briefly: Receptor binding assay with 125I-triptorelin on transfected LTK cells. Particulars: competition with 125I-triptorelin, whole LTK cells, 60 minutes at 37° C. As to the method: ^125I-Triptorelin [^125I-(D)-Trp6-GnRH] is ordered from the Biotrend Company (Cologne, Germany). The specific activity in each case is 2.13 Ci/mmol. All other chemicals are ordered from commercial sources at the highest available purity.
Transfixed LTK′ cells (ATCC No. CCL-11.3) are cultivated in DMEM medium (Invitrogen Life Technologies, Germany) with penicillin (100 I.U./ml), streptomycin (0.1 mg/ml) and glutamine (0.01 mol/l) and 10% fetal calf serum (FCS; Invitrogen Life Technologies, Germany) on plastic tissue culture plates (Nunc, Germany, 245×245×20 nun).
80% confluent cell culture plates are washed twice with 50 ml of phosphate-buffered salt solution (PBS) and dissolved below with 0.01 M EDTA solution. The cells are pelletized by centrifuging at 200×g for 5 minutes in a laboratory centrifuge (Kendro, Germany). The cell pellet is resuspended in 3 ml of binding medium (DMEM; 10 mmol of Hepes; 0.5% BSA; 0.1% NaN3; 1 g/l of bacitracin (freshly added, stock 100×); 0.1 g/l of SBTI (freshly added, stock 1000×), and the cell count is determined by means of trypan blue staining in a Neubauer counting chamber. The cell suspension is set with binding medium to a concentration of 5×10^5 Z/0.05 ml.
Binding tests for competition curves are performed as duplicates. The test substances are used as 10 mmol DMSO solutions. They are diluted with binding medium to 4× the final concentration used. 25 μl of the substance dilution is mixed with 25 μl of tracer solution (^125I-triptorelin). The concentration of tracer is set to about 50,000 cpm (measured in Cobra II, γ-counter, PE Liefe Science, Germany) in the final reaction volume of 100 μl.
200 μl of a silicone/paraffin oil mixture (84%:16%) is introduced into 650 μl pointed-bottom tubes (Roth, Germany). 50 μl of the cell suspension is pipetted thereto and subsequently 50 μl of the test substance/tracer mixture. The tubes are sealed and incubated for 60 minutes at 37° C. in an incubator that rotates via the top. After incubation, the samples are centrifuged in a centrifuge (Kendro, Germany) at 900 rpm and subsequently flash-frozen in liquid N2. The tip with the cell pellet is cut off and inserted into the prepared counting tube (Roth, Germany). The remainder of the pointed-bottom tube with the remaining supernatant is also inserted into a counting tube. The measurement is made in a γ-counter for 1 minute/sample.
The evaluation of the samples is carried out after calculating the specific bond in comparison to untreated cells, after the unspecific bond (excess unlabeled ligand, 1 mmol) is removed by means of GraphPad Prism (GraphPad Software Inc., USA).

In the case of `CC[C@H](C)[C@H](NC(=O)OCc1ccccc1)C(=O)N[C@]1(C(=O)N[C@H](C(N)=O)C(C)C)CCc2[nH]c3c(F)cc(F)cc3c2C1` [Compound 293, Phenylmethyl [(1S,2S)-1-[[[(3R)-3-[[[(1S)-1-(aminocarbonyl)-2-methylpropyl]amino]carbonyl]-6,8-difluoro-2,3,4,9-tetrahydro-1H-carbazol-3-yl]amino]car-bonyl]-2-methylbutyl]carbamate], the EC50 on GnRH receptor [1] was 762 nM; on GnRH receptor [2], 332 nM.

In the case of `CC[C@H](C)[C@H](NC(=O)[C@@]1(NC(=O)[C@@H](NC(=O)OCc2ccccc2)[C@@H](C)CC)CCc2[nH]c3c(OC)cccc3c2C1)C(N)=O` [Compound 294, Phenylmethyl [(1S,2S)-1-[[[(3R)-3-[[[(1S,2S)-1-(aminocarbonyl)-2-methylbutyl]amino]carbonyl]-8-methoxy-2,3,4,9-tetrahydro-1H-carbazol-3-yl]amino]car-bonyl]-2-methylbutyl]carbamate], the values for the EC50 at GnRH receptor [1] and on GnRH receptor [2] were 89 nM and 36 nM, respectively.

Regarding `CC[C@H](C)[C@H](NC(=O)[C@@]1(NC(=O)[C@@H](NC(=O)OCc2ccccc2)[C@@H](C)CC)CCc2[nH]c3c(Cl)cc(Cl)cc3c2C1)C(N)=O` [Compound 295, Phenylmethyl [(1S,2S)-1-[[[(3R)-3-[[[(1S,2S)-1-(aminocarbonyl)-2-methylbutyl]amino]carbonyl]-6,8-dichloro-2,3,4,9-tetrahydro-1H-carbazol-3-yl]amino]car-bonyl]-2-methylbutyl]carbamate], the EC50 on GnRH receptor [1] worked out at 7 nM; at GnRH receptor [2], 18 nM.

For `CC[C@H](C)[C@H](NC(=O)OCc1ccccc1)C(=O)N[C@]1(C(=O)N[C@@H](CC(C)C)C(N)=O)CCc2[nH]c3c(Cl)cc(Cl)cc3c2C1` [Compound 296, Phenylmethyl [(1S,2S)-1-[[[(3R)-3-[[[(1S)-1-(aminocarbonyl)-3-methylbutyl]amino]carbonyl]-6,8-dichloro-2,3,4,9-tetrahydro-1H-carbazol-3-yl]amino]car-bonyl]-2-methylbutyl]carbamate], the EC50 was found to be 14 nM on GnRH receptor [1] and 22 nM at GnRH receptor [2].

`CC[C@H](C)[C@H](NC(=O)OCc1ccccc1)C(=O)N[C@]1(C(=O)N[C@@H](CC2CCCCC2)C(N)=O)CCc2[nH]c3c(Cl)cc(Cl)cc3c2C1` [Compound 297, Phenylmethyl [(1S,2S)-1-[[[(3R)-3-[[[(1S)-1-(aminocarbonyl)-2-cyclohexylethyl]amino]carbonyl]-6,8-dichloro-2,3,4,9-tetrahydro-1H-carbazol-3-yl]amino]car-bonyl]-2-methylbutyl]carbamate]: the EC50 stood at 284 nM on GnRH receptor [1] and 482 nM at GnRH receptor [2].

Compound `CC[C@H](C)[C@H](NC(=O)OCc1ccccc1)C(=O)N[C@]1(C(=O)N[C@H](C(N)=O)C(C)(C)C)CCc2[nH]c3c(Cl)cc(Cl)cc3c2C1` [Compound 298, Phenylmethyl [(1S,2S)-1-[[[(3R)-3-[[[(1S)-1-(aminocarbonyl)-2,2-dimethylpropyl]amino]carbonyl]-6,8-dichloro-2,3,4,9-tetrahydro-1H-carbazol-3-yl]amino]car-bonyl]-2-methylbutyl]carbamate] returned an EC50 at GnRH receptor [2] of 288 nM.

Regarding `CC[C@H](C)[C@H](NC(=O)OCc1ccccc1)C(=O)N[C@]1(C(=O)N[C@@H](CCc2ccccc2)C(N)=O)CCc2[nH]c3c(Cl)cc(Cl)cc3c2C1` [Compound 299, Phenylmethyl [(1S,2S)-1-[[[(3R)-3-[[[(1S)-1-(aminocarbonyl)-3-phenylpropyl]amino]carbonyl]-6,8-dichloro-2,3,4,9-tetrahydro-1H-carbazol-3-yl]amino]car-bonyl]-2-methylbutyl]carbamate], the results for the EC50 on GnRH receptor [1] and at GnRH receptor [2] were 1500 nM and 1310 nM, respectively.

Consider `CCC(C)[C@H](NC(=O)[C@@]1(NC(=O)[C@H](CC2CCCCC2)NC(=O)OCc2ccccc2)CCc2[nH]c3c(Cl)cc(Cl)cc3c2C1)C(N)=O` (stereo partly drawn) [Compound 300, Phenylmethyl [(1S,2S)-1-[[[(3R)-3-[[[(1S)-1(aminocarbonyl)-2-methylbutyl]amino]carbonyl]-6,8-dichloro-2,3,4,9-tetrahydro-1H-carbazol-3-yl]amino]car-bonyl]-2-cyclohexylmethyl]-carbamate], for which the EC50 on GnRH receptor [1] turned out to be 17 nM; on GnRH receptor [2], 23 nM.

For the compound `CC[C@H](C)[C@H](NC(=O)[C@@]1(NC(=O)[C@H](CCc2ccc(O)cc2)NC(=O)OCc2ccccc2)CCc2[nH]c3c(Cl)cc(Cl)cc3c2C1)C(N)=O` [Compound 303, Phenylmethyl [(1S)-1-[[[(3R)-3-[[[(1S,2S)-1-(aminocarbonyl)-2-methylbutyl]amino]carbonyl]-6,8-dichloro-2,3,4,9-tetrahydro-1H-carbazol-3-yl]amino]car-bonyl]-3-(4-hydroxyphenyl)-propyl]carbamate], the midpoint of the response at GnRH receptor [2], the EC50, lay at 21 nM.

With `CC[C@H](C)[C@H](NC(=O)[C@@]1(NC(=O)[C@H](CC(C)C)NC(=O)OCc2ccccc2)CCc2[nH]c3c(Cl)cc(Cl)cc3c2C1)C(N)=O` [Compound 305, Phenylmethyl [(1S)-1-[[[(3R)-3-[[[(1S,2S)-1-(aminocarbonyl)-2-methylbutyl]amino]carbonyl]-6,8-dichloro-2-3,4,9-tetrahydro-1H-carbazol-3-yl]amino]car-bonyl]-3-methylbutyl]carbamate], the EC50 on GnRH receptor [2] came to 56 nM.

`CC(C)C[C@H](NC(=O)[C@@]1(NC(=O)[C@H](CC(C)C)NC(=O)OCc2ccccc2)CCc2[nH]c3c(Cl)cc(Cl)cc3c2C1)C(N)=O` [Compound 306, Phenylmethyl [(1S)-1-[[[(3R)-3-[[[(1S)-1-(aminocarbonyl)-3-methylbutyl]amino]carbonyl]-6,8-dichloro-2,3,4,9-tetrahydro-1H-carbazol-3-yl]amino]car-bonyl]-3-methylbutyl]carbamate] registered an EC50 at GnRH receptor [2] of 77 nM. The EC50 values of the last two compounds are within 1.5-fold of each other.

Source of the values: patent US7122570B2, “Tetrahydrocarbazol derivatives as ligands for G-protein-coupled receptors (GPCR)” (Zentaris AG, priority 2001, dated 2006).
